Measured values published in patent publication US20040076673A1, “Oral pharmaceutical composition containing a block copolymer” (priority 2000, published 2004).
Converted amounts (≈) assume the structure as drawn.

Key:
Solubility Measurements = type: physicochemical
[1] = pH shift dissolution method (0.1N HCl, then shift to pH 6.5); type: physicochemical; conditions: in vitro tests; with block copolymers versus without
Description: pH Shift Dissolution Method
The formulations were weighed into hard gelatin capsules (equivalent to 25 mg drug) and dissoluted in 500 ml 0.1N HCl for one hour at 37° C. (paddle speed 100 rpm). A 5 ml sample was taken at 55 minutes and the media replaced. After one hour 10 ml of a 2.5M KH2PO4/16.72% (w/v) NaOH solution was added to the HCl to shift the pH to 6.5. 5 ml samples were then removed with a plastic syringe at 5, 15, 30, 45 and 60 minutes and media replaced after every sampling time point. Each sample was centrifuged (14,000 rpm) at ambient temperature for 15 minutes and then analysed by HPLC using the following conditions: […]

solubility (Solubility Measurements; pH 1.2, simulated gastric fluid): 250 µg/mL (≈ 508 µM)
solubility (Solubility Measurements; pH 6.8, aqueous buffer): 2 µg/mL (≈ 4.07 µM)
solubility (Solubility Measurements; water): < 5 µg/mL
improvement of maximum supersaturated concentration by use of the polymers [1]: 4-10 times
SMILES: O=C(c1ccc(-c2ccncc2)cc1)N1CCN(S(=O)(=O)c2ccc3cc(Cl)ccc3c2)CC1 [Compound 1, 1-(6-chloronaphth-2-ylsulfonyl)-4-[4-(4-pyridyl)benzoyl] piperazine]
